Test systems include 786-0 renal; EKVX NSCLC; HS 578T breast; HT29 colon; M14 melanoma; NCI-H23 lung; SF-268 CNS; SN12C renal; T-47D breast; MALME-3M melanoma.
What all share (assay): NCI anticancer screen, dose series, 48 h

Structures are written as SMILES.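 Results reflect a 48-hour exposure of cells in 96-well plates to compound at five concentrations. GI50 = concentration required for 50% inhibition of growth. The concentration for full growth arrest is given as TGI.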 A value given as a limit tells only on which side of the number the result lay.

Take `O=C1C(=O)c2ccccc2C=C1[N+](=O)[O-]`: the TGI was above 100 µM in the assay with 786-0 renal; 56.8 µM with EKVX NSCLC; above 100 µM in the assay on HS 578T breast; above 100 µM with HT29 colon; above 100 µM in the assay on M14 melanoma; above 100 µM in the assay with NCI-H23 lung. For the same compound, the TGI with SF-268 CNS, in the assay with SN12C renal and in the assay on T-47D breast was above 100 µM in each case.

In the case of `NC(=O)c1ncn(C2OC(CO)C(O)C2O)n1` (configuration not stated), the GI50 in the assay on 786-0 renal was above 100000 nM; with EKVX NSCLC, 70.2 µM; with HS 578T breast it was above 100 µM; with HT29 colon, 14200 nM; with M14 melanoma it was above 100000 nM; in the assay on MALME-3M melanoma it was above 100 µM. For the same compound, the GI50 with NCI-H23 lung was above 100 µM; in the assay on SN12C renal, 85 µM; in the assay with T-47D breast it was 49.2 µM. In addition, the TGI in the assay on 786-0 renal, with EKVX NSCLC, in the assay with HS 578T breast, in the assay on HT29 colon, with M14 melanoma and in the assay with MALME-3M melanoma was above 100 µM in each case. The TGI in the assay with NCI-H23 lung, in the assay on SN12C renal and in the assay on T-47D breast was above 100 µM throughout.

For `COc1cc(C2=Nc3c/c(=C\c4c(O)[nH]c5ccc(Cl)cc45)ccc3=N2)cc(OC)c1OC`, the GI50 with 786-0 renal was 2890 nM; in the assay on HS 578T breast it was 1.69 µM; in the assay on HT29 colon, 2110 nM; with M14 melanoma it was 1710 nM; with MALME-3M melanoma it was 1.79 µM; with NCI-H23 lung, 1.96 µM. Moreover, the GI50 in the assay with SF-268 CNS is 1.93 µM; in the assay with SN12C renal, 2.11 µM; with T-47D breast it was 9.13 µM. Also, the TGI was 9.91 µM in the assay on 786-0 renal; 5.86 µM in the assay on HS 578T breast; 4.5 µM in the assay on HT29 colon; 3.83 µM in the assay on M14 melanoma; 3.71 µM in the assay with MALME-3M melanoma; 7.61 µM with NCI-H23 lung. Also, the TGI in the assay with SF-268 CNS is 3.78 µM; in the assay with SN12C renal, 6.5 µM; in the assay with T-47D breast, 37.3 µM.

Take `O=C(Nc1cccc(-n2cc(-c3ccncc3)c(-c3cc(O)cc(Cl)c3)n2)c1)Nc1ccc(Cl)c(Cl)c1`: the GI50 is 1480 nM in the assay with 786-0 renal; 3.23 µM in the assay with HS 578T breast; 1920 nM in the assay on HT29 colon; 1440 nM in the assay with M14 melanoma; 1.8 µM in the assay with MALME-3M melanoma; 2.41 µM with NCI-H23 lung. The GI50 in the assay with SF-268 CNS is 3.22 µM; in the assay with SN12C renal, 2.78 µM; with T-47D breast it was 2.39 µM. Besides, the TGI is 3.71 µM with 786-0 renal; above 100 µM with HS 578T breast; 3.9 µM in the assay on HT29 colon; 3.28 µM with M14 melanoma; 5.48 µM in the assay with MALME-3M melanoma; 6.29 µM with NCI-H23 lung. For the same compound, the TGI in the assay on SF-268 CNS worked out at 32.8 µM; in the assay on SN12C renal it was 18.1 µM; with T-47D breast, 6.17 µM.

In the case of `CCOC(=O)CC(=O)N(c1ccc(OC)cc1)C(C(=O)OC)c1ccccc1` (configuration not stated), the TGI with 786-0 renal, in the assay on EKVX NSCLC, in the assay with HS 578T breast, with HT29 colon, with M14 melanoma and in the assay on NCI-H23 lung was above 100 µM each time. The TGI in the assay with SF-268 CNS, in the assay on SN12C renal and in the assay with T-47D breast was above 100 µM in each case.

Regarding `Nc1ccn(C2OC(CO[P+](=O)OC3C(CO[P+](=O)OC4C(CO[P+](=O)OC5C(CO[P+](=O)OC6C(CO[P+](=O)OC7C(CO[P+](=O)OC8C(CO[P+](=O)OC9C(CO[P+](=O)OC%10C(CO[P+](=O)OC%11C(CO)OC(n%12ccc(N)nc%12=O)C%11(F)F)OC(n%11ccc(N)nc%11=O)C%10(F)F)OC(n%10ccc(N)nc%10=O)C9(F)F)OC(n9ccc(N)nc9=O)C8(F)F)OC(n8ccc(N)nc8=O)C7(F)F)OC(n7ccc(N)nc7=O)C6(F)F)OC(n6ccc(N)nc6=O)C5(F)F)OC(n5ccc(N)nc5=O)C4(F)F)OC(n4ccc(N)nc4=O)C3(F)F)C(O)C2(F)F)c(=O)n1` (configuration not stated), the GI50 was 60.5 nM with 786-0 renal; above 100 µM in the assay with EKVX NSCLC; above 100 µM in the assay on HS 578T breast; 1320 nM in the assay on HT29 colon; 39.7 nM with M14 melanoma; 50.9 µM in the assay on MALME-3M melanoma. The TGI in the assay on 786-0 renal is above 100 µM; with EKVX NSCLC, above 100 µM; with HT29 colon, above 100 µM; in the assay on M14 melanoma it was 0.27 µM; in the assay on MALME-3M melanoma, above 100 µM; in the assay on T-47D breast, above 100 µM.

On to `Clc1cccc(Cn2cc(Cc3cn(Cc4cccc(Cl)c4)c4ccccc34)c3ccccc32)c1`, for which the GI50 was above 100000 nM with 786-0 renal; above 100 µM in the assay with HS 578T breast; above 100000 nM in the assay on HT29 colon; above 100000 nM in the assay with M14 melanoma; above 100 µM in the assay on MALME-3M melanoma; above 100 µM in the assay on NCI-H23 lung. In addition, the GI50 in the assay with SF-268 CNS, in the assay with SN12C renal and with T-47D breast was above 100 µM in each case. In addition, the TGI in the assay with 786-0 renal, in the assay on HS 578T breast, with HT29 colon, with M14 melanoma, with MALME-3M melanoma and in the assay with NCI-H23 lung was above 100 µM throughout. For the same compound, the TGI in the assay with SF-268 CNS, in the assay with SN12C renal and in the assay on T-47D breast was above 100 µM in each case.

Regarding `Nc1ccccc1C#Cc1ccccc1C#Cc1ccccc1N`, the GI50 was 11900 nM in the assay with 786-0 renal; 8.03 µM in the assay on EKVX NSCLC; 5980 nM in the assay with HT29 colon; 6620 nM with M14 melanoma; 10.3 µM with MALME-3M melanoma; 19.3 µM in the assay with NCI-H23 lung. Moreover, the GI50 with SF-268 CNS is 10.6 µM; with SN12C renal it was 11.4 µM; in the assay on T-47D breast, 17.1 µM. Besides, the TGI was 31.2 µM in the assay with 786-0 renal; 32.8 µM in the assay on EKVX NSCLC; above 100 µM with HT29 colon; 24.5 µM in the assay with M14 melanoma; 24.1 µM in the assay with MALME-3M melanoma; 70.8 µM in the assay on NCI-H23 lung. The TGI was determined as 37 µM with SF-268 CNS, 24.5 µM with SN12C renal and 38.4 µM in the assay on T-47D breast.

On to `Cc1cc(NC(=O)NC(=O)c2ccccc2[N+](=O)[O-])ccc1Oc1ncc(Cl)cn1`, for which the TGI is 26.4 µM in the assay with 786-0 renal; above 100 µM in the assay on EKVX NSCLC; 3.38 µM in the assay with HT29 colon; 35.7 µM in the assay on M14 melanoma; 43.8 µM in the assay on MALME-3M melanoma; above 80.5 µM in the assay with NCI-H23 lung. Besides, the values for the TGI with SF-268 CNS, in the assay with SN12C renal and in the assay on T-47D breast were above 82.3 µM, above 81.6 µM and above 100 µM, respectively.

Regarding `COc1ccc(S(=O)(=O)Nc2cc(/C=C\c3cc(OC)c(OC)c(OC)c3)cc(OC)c2OC)cc1OC`, the GI50 with 786-0 renal was 444 nM; with EKVX NSCLC, 3.6 µM; in the assay on HS 578T breast, 3.42 µM; with HT29 colon it was 485 nM; in the assay with M14 melanoma, 419 nM; in the assay on NCI-H23 lung, 3.31 µM. For the same compound, the results for the GI50 in the assay with SF-268 CNS, in the assay on SN12C renal and with T-47D breast were 20.8 µM, 1.18 µM and 27.2 µM, respectively. For the same compound, the TGI with 786-0 renal, in the assay on EKVX NSCLC, with HS 578T breast, with HT29 colon, with M14 melanoma and with NCI-H23 lung was above 100 µM in each case. The TGI in the assay with SF-268 CNS, in the assay with SN12C renal and with T-47D breast was above 100 µM throughout.

For `Cn1c(=O)c(Sc2ccccc2F)cc2cnc(NC3CCOCC3)nc21`, the GI50 in the assay with 786-0 renal was above 25000 nM; with HS 578T breast it was above 25 µM; in the assay with HT29 colon, above 25000 nM; with M14 melanoma, above 25000 nM; in the assay on MALME-3M melanoma, above 25 µM; in the assay with NCI-H23 lung, above 25 µM. Besides, the GI50 with SF-268 CNS, in the assay on SN12C renal and in the assay with T-47D breast was above 25 µM in each case. Moreover, the TGI in the assay on 786-0 renal, in the assay on HS 578T breast, in the assay on HT29 colon, in the assay on M14 melanoma, with MALME-3M melanoma and in the assay with NCI-H23 lung was above 25 µM each time. Besides, the TGI with SF-268 CNS, with SN12C renal and with T-47D breast was above 25 µM each time.

`Cc1c(NC(=O)CCCl)c(=O)oc2c(C)c3occc(=O)c3cc12`: the TGI with 786-0 renal, in the assay on EKVX NSCLC, with HS 578T breast, in the assay on HT29 colon, in the assay on M14 melanoma and in the assay with MALME-3M melanoma was above 100 µM in each case. Further, the TGI in the assay with NCI-H23 lung, in the assay on SF-268 CNS and in the assay on T-47D breast was above 100 µM each time.

On to `COc1ccc(Nc2nc(NCc3ccccc3)c3ccccc3n2)cc1`, for which the GI50 in the assay with 786-0 renal is 6310 nM; in the assay on HS 578T breast it was 10.9 µM; in the assay on HT29 colon, 3480 nM; with M14 melanoma, 2300 nM; in the assay on MALME-3M melanoma, 1.92 µM; in the assay with NCI-H23 lung it was 3.02 µM. Besides, the GI50 in the assay with SF-268 CNS was 8.85 µM; in the assay on SN12C renal, 5.19 µM; in the assay on T-47D breast it was 1.74 µM. The TGI in the assay on 786-0 renal amounted to 20.9 µM; with HS 578T breast, 30.5 µM; in the assay with HT29 colon, 11.1 µM; in the assay with M14 melanoma, 5.73 µM; with MALME-3M melanoma, 3.69 µM; with NCI-H23 lung it was 13.7 µM. Besides, the TGI in the assay on SF-268 CNS came to 25.1 µM; in the assay with SN12C renal, 19.6 µM; in the assay with T-47D breast it was 3.4 µM.

(Values after PubChem BioAssay (NCI).)
